From patent publication US12673975B2, “Cyclic peptide, cell scaffold material, cell separating material, and medium” (FUJIFILM Corporation, priority 2019, dated 2026) come the findings set out here.

The target of one data set is human integrin αvβ5 (Homo sapiens, UniProt P06756+P18084). Kind of data set: Evaluation of integrin binding property (surface plasmon resonance, Biacore 3000, immobilized cyclic peptide). The method, boiled down: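 Human αvβ5 (30-1,000 nM) flowed for 10 min at 25 °C over immobilized cyclic peptide in 20 mM HEPES, 150 mM NaCl, 5 mM MgCl2, pH 7.4, followed by 30 min running buffer and 0.5 M EDTA regeneration. Dissociation constant from peptide minus unimmobilized channel, scored into standard grades.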

Data set [1] in a line: Evaluation of molecule stability (alkali treatment, residual rate by LC/MS). In kind it is physicochemical. To be noted: for Performance evaluation: Stability (residual rate of cyclic peptide after alkali treatment): 500 μM peptide aqueous solution plus equivalent of 1 M sodium hydroxide, 15° C., 3 hours, LC/MS peak area; for Stability (molecule stability, residual rate of the cyclic peptide rank): alkali treatment, residual rate by LC/MS. The method, boiled down: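 Stability read as percent of summed LC/MS peak area remaining versus untreated peptide (C18, 45 °C, 10 mM ammonium formate pH 3, ESI positive/negative). Treatment: 500 μM peptide in water plus an equivalent of 1 M NaOH, 15 °C for 3 hours.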

Setting [2] is: SPR, 25° C., HEPES buffer with 5 mM magnesium chloride, integrin 30-1,000 nM, read-out: Performance evaluation: Binding activity (dissociation constant between the cyclic peptide and human integrin αvβ5).
The mark [3] stands for this setting: surface plasmon resonance, immobilized cyclic peptide, human integrin αvβ5, read-out: Binding activity (integrin binding property, dissociation constant rank).

The structures appear in SMILES notation. Read-outs that look alike come from different tables or passages of the source. Starred links: 1 amine or outer side, 2 acyl side, 3 side chain; linkers in the order of their positions; H or OH if unused. Positions of bridges follow the written chain, without caps; N, C: chain ends. Non-standard residues stand in square brackets, D forms with d. Residues, ends and D or L forms follow the SMILES beside them. Pen = CC(C)(S)[C@H](N)C(=O)O; hCys = N[C@@H](CCS)C(=O)O; Orn = NCCC[C@H](N)C(=O)O; Dab = NCC[C@H](N)C(=O)O; X2 = O=C(C[*:1])[*:2] Where only a bound is given, the exact number is not on record here.

Sequence of human integrin αvβ5 (P06756 31-1048): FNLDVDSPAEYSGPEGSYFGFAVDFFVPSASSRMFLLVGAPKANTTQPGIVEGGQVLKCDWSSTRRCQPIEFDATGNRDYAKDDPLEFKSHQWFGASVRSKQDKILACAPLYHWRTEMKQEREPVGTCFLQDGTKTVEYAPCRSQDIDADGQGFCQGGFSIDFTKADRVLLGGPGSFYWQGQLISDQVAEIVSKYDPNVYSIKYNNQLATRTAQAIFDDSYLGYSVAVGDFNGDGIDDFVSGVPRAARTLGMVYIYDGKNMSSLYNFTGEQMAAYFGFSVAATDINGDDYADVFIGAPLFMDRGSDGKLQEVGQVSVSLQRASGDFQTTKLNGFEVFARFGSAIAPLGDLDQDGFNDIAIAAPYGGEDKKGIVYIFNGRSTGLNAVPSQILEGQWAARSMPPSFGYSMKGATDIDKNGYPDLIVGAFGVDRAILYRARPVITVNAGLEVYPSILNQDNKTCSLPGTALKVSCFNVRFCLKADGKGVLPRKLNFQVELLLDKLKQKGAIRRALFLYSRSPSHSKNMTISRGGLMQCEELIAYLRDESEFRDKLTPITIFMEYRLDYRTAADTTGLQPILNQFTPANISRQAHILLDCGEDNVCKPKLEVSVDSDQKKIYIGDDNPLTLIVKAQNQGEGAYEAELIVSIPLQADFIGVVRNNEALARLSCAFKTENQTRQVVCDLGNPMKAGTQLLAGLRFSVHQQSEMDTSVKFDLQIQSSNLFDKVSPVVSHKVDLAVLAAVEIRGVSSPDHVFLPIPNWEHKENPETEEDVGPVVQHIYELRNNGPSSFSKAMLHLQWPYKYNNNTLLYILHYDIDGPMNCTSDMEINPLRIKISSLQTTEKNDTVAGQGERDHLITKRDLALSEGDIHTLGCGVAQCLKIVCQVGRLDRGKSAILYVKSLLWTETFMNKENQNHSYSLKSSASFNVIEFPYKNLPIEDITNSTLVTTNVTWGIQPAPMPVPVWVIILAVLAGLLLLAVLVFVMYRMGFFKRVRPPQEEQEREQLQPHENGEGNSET
Sequence of human integrin αvβ5 (P18084 24-799): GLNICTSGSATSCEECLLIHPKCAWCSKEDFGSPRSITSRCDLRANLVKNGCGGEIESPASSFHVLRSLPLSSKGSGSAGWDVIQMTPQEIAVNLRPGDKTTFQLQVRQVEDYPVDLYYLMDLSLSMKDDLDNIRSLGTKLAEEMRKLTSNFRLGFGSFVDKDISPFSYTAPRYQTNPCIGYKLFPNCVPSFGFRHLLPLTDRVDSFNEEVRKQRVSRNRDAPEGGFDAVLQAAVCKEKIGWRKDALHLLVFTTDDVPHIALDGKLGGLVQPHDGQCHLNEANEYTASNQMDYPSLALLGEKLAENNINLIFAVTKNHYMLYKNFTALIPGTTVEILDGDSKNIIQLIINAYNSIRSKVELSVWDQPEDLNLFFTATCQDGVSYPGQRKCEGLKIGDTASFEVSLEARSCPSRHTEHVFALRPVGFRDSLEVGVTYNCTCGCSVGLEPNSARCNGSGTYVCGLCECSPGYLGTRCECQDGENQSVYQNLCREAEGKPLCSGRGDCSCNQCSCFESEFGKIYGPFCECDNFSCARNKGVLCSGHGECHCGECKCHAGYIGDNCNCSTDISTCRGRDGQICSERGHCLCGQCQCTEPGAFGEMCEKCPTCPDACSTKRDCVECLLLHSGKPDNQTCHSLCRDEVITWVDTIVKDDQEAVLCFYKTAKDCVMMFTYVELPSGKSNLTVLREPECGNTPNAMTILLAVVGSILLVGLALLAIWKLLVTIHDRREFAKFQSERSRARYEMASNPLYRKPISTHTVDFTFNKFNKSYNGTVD

In the case of `CC[C@H](C)[C@@H]1NC(=O)[C@@H](NC(=O)[C@H](CCCCN)NC(=O)[C@H](CCCCN)NC(=O)[C@@H](N)CCCCN)CCSCC(=O)NCC[C@@H](C(=O)N[C@@H](C)C(=O)O)NC(=O)[C@H](C)NC(=O)[C@H](CCCNC(=N)N)NC(=O)[C@H](Cc2ccccc2)NC(=O)[C@H](CC(N)=O)NC(=O)[C@H](CC(=O)O)NC(=O)CNC(=O)[C@H](CCCNC(=N)N)NC(=O)[C@@H]2CCCN2C1=O` [Cyclic peptide 16, KKK-(Hcy)-IPRGDNFRA(Dab(acetyl))A] (H-KKK[hCys]IPRGDNFRA[Dab]A-OH; linker 4-14 via X2), on human integrin αvβ5 (setting [2]), the Kd was 50 to 100 nM. The “Performance evaluation: Stability (residual rate of cyclic peptide after alkali treatment)” value in data set [1] is “A (The residual rate of the cyclic peptide is 70% or more.)”.

Turning to `CC(C)[C@@H]1NC(=O)[C@@H](NC(=O)[C@H](C)NC(=O)[C@H](CCCCN)NC(=O)[C@H](CCCCN)NC(=O)[C@@H](N)CCCCN)CCSCC(=O)NCC[C@@H](C(=O)N[C@@H](C)C(=O)O)NC(=O)[C@H](C)NC(=O)[C@H](Cc2ccccc2)NC(=O)[C@H](C)NC(=O)[C@H](CC(=O)O)NC(=O)CNC(=O)[C@H](CCCNC(=N)N)NC(=O)[C@@H]2CCCN2C1=O` [Cyclic peptide 91, KKKA-(Hcy)-VPRGDAFA(Dab(acetyl))A] (H-KKKA[hCys]VPRGDAFA[Dab]A-OH; linker 5-14 via X2), the Kd on human integrin αvβ5 (setting [2]) was less than 50 nM. The “Performance evaluation: Stability (residual rate of cyclic peptide after alkali treatment)” value in data set [1] is reported as “A (The residual rate of the cyclic peptide is 70% or more.)”.

Take `CC[C@H](C)[C@@H]1NC(=O)[C@H](C)NC(=O)[C@@H](NC(=O)[C@H](CCCCN)NC(=O)[C@H](CCCCN)NC(=O)[C@@H](N)CCCCN)CCSCC(=O)NCC[C@@H](C(=O)N[C@@H](C)C(=O)O)NC(=O)[C@H](C)NC(=O)[C@H](CCCNC(=N)N)NC(=O)[C@H](Cc2ccccc2)NC(=O)[C@H](CC(N)=O)NC(=O)[C@H](CC(=O)O)NC(=O)CNC(=O)[C@H](CCCNC(=N)N)NC(=O)[C@@H]2CCCN2C1=O` [Cyclic peptide 17, KKK-(Hcy)-AIPRGDNFRA(Dab(acetyl))A] (H-KKK[hCys]AIPRGDNFRA[Dab]A-OH; linker 4-15 via X2): the Kd at human integrin αvβ5 (setting [2]) lay within 50 to 100 nM. Moreover, the “Performance evaluation: Stability (residual rate of cyclic peptide after alkali treatment)” value in data set [1] is “A (The residual rate of the cyclic peptide is 70% or more.)”.

As to `CC[C@H](C)[C@@H]1NC(=O)[C@@H](NC(=O)[C@H](C)NC(=O)[C@H](CCCCN)NC(=O)[C@H](CCCCN)NC(=O)[C@@H](N)CCCCN)CCSCC(=O)NCC[C@@H](C(=O)N[C@@H](C)C(=O)O)NC(=O)[C@H](CCCNC(=N)N)NC(=O)[C@H](Cc2ccccc2)NC(=O)[C@H](C(C)C)NC(=O)[C@H](CC(=O)O)NC(=O)CNC(=O)[C@H](CCCNC(=N)N)NC(=O)[C@@H]2CCCN2C1=O` [Cyclic peptide 78, KKKA-(Hcy)-IPRGDVFR(Dab(acetyl))A] (H-KKKA[hCys]IPRGDVFR[Dab]A-OH; linker 5-14 via X2), the Kd on human integrin αvβ5 (setting [2]) was less than 50 nM. In data set [1], the “Performance evaluation: Stability (residual rate of cyclic peptide after alkali treatment)” value is on record as “A (The residual rate of the cyclic peptide is 70% or more.)”.

As for `CC[C@H](C)[C@@H]1NC(=O)[C@@H](NC(=O)[C@H](C)N)CCSCC(=O)NCC[C@@H](C(=O)N[C@@H](C)C(=O)O)NC(=O)[C@H](C)NC(=O)[C@H](Cc2ccccc2)NC(=O)[C@H](CO)NC(=O)[C@H](CC(=O)O)NC(=O)CNC(=O)[C@H](CCCNC(=N)N)NC(=O)[C@@H]2CCCN2C1=O` [Cyclic peptide 126, A-(Hcy)-IPRGDSFA(Dab(acetyl))A] (H-A[hCys]IPRGDSFA[Dab]A-OH; linker 2-11 via X2), at human integrin αvβ5 (setting [3]), the Kd is less than 50 nM. For the same compound, the “Stability (molecule stability, residual rate of the cyclic peptide rank)” value in data set [1] is reported as “A (The residual rate of the cyclic peptide is 70% or more.)”.

For the compound `CC(C)[C@@H]1NC(=O)[C@@H](NC(=O)[C@H](C)NC(=O)[C@H](CCCCN)NC(=O)[C@H](CCCCN)NC(=O)[C@@H](N)CCCCN)CCSCC(=O)NCC[C@@H](C(=O)N[C@@H](CC(=O)O)C(=O)O)NC(=O)[C@H](CCCNC(=N)N)NC(=O)[C@H](Cc2ccc(O)cc2)NC(=O)[C@H](CC(N)=O)NC(=O)[C@H](CC(=O)O)NC(=O)CNC(=O)[C@H](CCCNC(=N)N)NC(=O)[C@@H]2CCCN2C1=O` [Cyclic peptide 29, KKKA-(Hcy)-VPRGDNYR(Dab(acetyl))D] (H-KKKA[hCys]VPRGDNYR[Dab]D-OH; linker 5-14 via X2), the Kd on human integrin αvβ5 (setting [2]) is 50 to 100 nM. Further, the “Performance evaluation: Stability (residual rate of cyclic peptide after alkali treatment)” value in data set [1] was “A (The residual rate of the cyclic peptide is 70% or more.)”.

On to `CC[C@H](C)[C@@H]1NC(=O)[C@@H](NC(=O)[C@H](CCCCN)NC(=O)[C@H](CCCCN)NC(=O)[C@@H](N)CCCCN)CCSCC(=O)NCC[C@@H](C(=O)N[C@@H](C)C(=O)O)NC(=O)[C@H](Cc2ccccc2)NC(=O)[C@H](CC(N)=O)NC(=O)[C@H](CC(=O)O)NC(=O)CNC(=O)[C@H](CCCNC(=N)N)NC(=O)[C@@H]2CCCN2C1=O` [Cyclic peptide 10, KKK-(Hcy)-IPRGDNF(Dab(acetyl))A] (H-KKK[hCys]IPRGDNF[Dab]A-OH; linker 4-12 via X2), for which the Kd on human integrin αvβ5 (setting [2]) lay within 50 to 100 nM. Besides, the “Performance evaluation: Stability (residual rate of cyclic peptide after alkali treatment)” value in data set [1] is recorded as “A (The residual rate of the cyclic peptide is 70% or more.)”.

`CC[C@H](C)[C@@H]1NC(=O)[C@@H](NC(=O)CNC(=O)[C@H](CCCCN)NC(=O)[C@H](CCCCN)NC(=O)[C@@H](N)CCCCN)C(C)(C)SCC(=O)NCC[C@@H](C(=O)N[C@@H](C)C(=O)O)NC(=O)[C@H](CCCNC(=N)N)NC(=O)[C@H](Cc2ccccc2)NC(=O)[C@H]([C@@H](C)O)NC(=O)[C@H](CC(=O)O)NC(=O)CNC(=O)[C@H](CCCNC(=N)N)NC(=O)[C@@H]2CCCN2C1=O` [Cyclic peptide 129, KKKG-(Pen)-IPRGDTFR(Dab(acetyl))A] (H-KKKG[Pen]IPRGDTFR[Dab]A-OH; linker 5-14 via X2): the Kd on human integrin αvβ5 (setting [3]) lay in the range of 50 to 100 nM. The “Stability (molecule stability, residual rate of the cyclic peptide rank)” value in data set [1] is “A (The residual rate of the cyclic peptide is 70% or more.)”.

Turning to `CC[C@H](C)[C@@H]1NC(=O)[C@@H](NC(=O)CNC(=O)[C@H](CCCCN)NC(=O)[C@H](CCCCN)NC(=O)[C@@H](N)CCCCN)CCSCC(=O)NCC[C@@H](C(=O)N[C@@H](C)C(=O)O)NC(=O)[C@H](CCCNC(=N)N)NC(=O)[C@H](Cc2ccccc2)NC(=O)[C@H](CO)NC(=O)[C@H](CC(=O)O)NC(=O)CNC(=O)[C@H](CCCNC(=N)N)NC(=O)[C@@H]2CCCN2C1=O` [Cyclic peptide 72, KKKG-(Hcy)-IPRGDSFR(Dab(acetyl))A] (H-KKKG[hCys]IPRGDSFR[Dab]A-OH; linker 5-14 via X2), the Kd at human integrin αvβ5 (setting [2]) lay in the range of 50 to 100 nM. For the same compound, the “Performance evaluation: Stability (residual rate of cyclic peptide after alkali treatment)” value in data set [1] was “A (The residual rate of the cyclic peptide is 70% or more.)”.

Turning to `CC[C@H](C)[C@@H]1NC(=O)[C@@H](NC(=O)CNC(=O)[C@H](CCCCN)NC(=O)[C@H](CCCCN)NC(=O)[C@@H](N)CCCCN)C(C)(C)SCC(=O)NCCC[C@@H](C(=O)N[C@@H](C)C(=O)O)NC(=O)[C@H](CCCNC(=N)N)NC(=O)[C@H](Cc2ccccc2)NC(=O)[C@H]([C@@H](C)O)NC(=O)[C@H](CC(=O)O)NC(=O)CNC(=O)[C@H](CCCNC(=N)N)NC(=O)[C@@H]2CCCN2C1=O` [Cyclic peptide 130, KKKG-(Pen)-IPRGDTFR(Orn(acetyl))A] (H-KKKG[Pen]IPRGDTFR[Orn]A-OH; linker 5-14 via X2), the Kd on human integrin αvβ5 (setting [3]) is less than 50 nM. Moreover, in data set [1], the “Stability (molecule stability, residual rate of the cyclic peptide rank)” value was “A (The residual rate of the cyclic peptide is 70% or more.)”.
